Literature values in patent US10947168B2, “Solvent systems for dicyandiamide and/or alkyl thiophosphoric triamide and use in agricultural applications” (RHODIA OPERATIONS, priority 2014, dated 2021).

solubility in water: about 41 g/l
Compound: N#CNC(=N)N [Dicyandiamide]
